One series concerns rOAT1/3. The series is described as follows: rOAT1/3−/− rat experiment. It counts as in vivo, rats. Particulars: Fig. S7F.
A further series has as its target T1, OAT3 (Homo sapiens, UniProt Q8TCC7).
T1 sequence (Q8TCC7 1-542): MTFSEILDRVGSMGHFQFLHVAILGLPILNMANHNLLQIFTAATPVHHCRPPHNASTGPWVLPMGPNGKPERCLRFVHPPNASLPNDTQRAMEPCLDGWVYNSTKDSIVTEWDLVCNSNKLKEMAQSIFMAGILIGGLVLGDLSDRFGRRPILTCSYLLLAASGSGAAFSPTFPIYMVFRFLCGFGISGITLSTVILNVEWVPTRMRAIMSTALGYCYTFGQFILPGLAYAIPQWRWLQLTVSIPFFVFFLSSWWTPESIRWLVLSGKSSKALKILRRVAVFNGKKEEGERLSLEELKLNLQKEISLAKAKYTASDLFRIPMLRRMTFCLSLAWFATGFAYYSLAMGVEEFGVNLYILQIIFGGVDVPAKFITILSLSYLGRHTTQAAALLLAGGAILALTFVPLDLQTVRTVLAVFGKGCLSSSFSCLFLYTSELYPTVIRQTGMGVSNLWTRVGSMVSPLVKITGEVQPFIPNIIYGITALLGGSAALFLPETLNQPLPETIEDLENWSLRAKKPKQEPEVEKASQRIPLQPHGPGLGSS
As to the kind of experiment: Uptake of UTs in HEK293T-OAT3 cells. It counts as cell-based. Particulars: 100 μM, 30 min, 37 °C; for uptake of HSA-bound UT in OAT3-overexpressing cells vs control cells: with HSA; for uptake of free UT in OAT3-overexpressing cells vs control cells: without HSA.

In a further series the test system is MRP4. The series is described as follows: Intracellular accumulation of UTs in MRP4-overexpressing cells. It counts as cell-based, human. Particulars: 100 μM, 30 min, 37 °C, 4 mM ATP.
The subject of the next series is rOATs. As to the kind of experiment: rOATs inhibition experiment.
A further series has as its system serum protein. As to the kind of experiment: Protein-binding ratio of UTs in rat serum. Particulars: ultrafiltration at 37 °C. The format is in vitro ADME, rats.
A further series concerns HSA. Particulars: 4% HSA, about 100 μM UT, 37 °C, 2 h; cited from earlier work.
Series [1] is classed as in vivo, rats. Particulars: rats; for Renal clearance half-life (t1/2), Control: 2 mg/kg i.v., urine 0-12 h; for renal excretion with MK-571 vs control: MK-571 20 mg/kg; for renal excretion with PROB vs control: PROB 60 mg/kg.
For another series, the target named is T2, OAT1 (Homo sapiens, UniProt Q4U2R8).
T2 sequence (Q4U2R8 1-563): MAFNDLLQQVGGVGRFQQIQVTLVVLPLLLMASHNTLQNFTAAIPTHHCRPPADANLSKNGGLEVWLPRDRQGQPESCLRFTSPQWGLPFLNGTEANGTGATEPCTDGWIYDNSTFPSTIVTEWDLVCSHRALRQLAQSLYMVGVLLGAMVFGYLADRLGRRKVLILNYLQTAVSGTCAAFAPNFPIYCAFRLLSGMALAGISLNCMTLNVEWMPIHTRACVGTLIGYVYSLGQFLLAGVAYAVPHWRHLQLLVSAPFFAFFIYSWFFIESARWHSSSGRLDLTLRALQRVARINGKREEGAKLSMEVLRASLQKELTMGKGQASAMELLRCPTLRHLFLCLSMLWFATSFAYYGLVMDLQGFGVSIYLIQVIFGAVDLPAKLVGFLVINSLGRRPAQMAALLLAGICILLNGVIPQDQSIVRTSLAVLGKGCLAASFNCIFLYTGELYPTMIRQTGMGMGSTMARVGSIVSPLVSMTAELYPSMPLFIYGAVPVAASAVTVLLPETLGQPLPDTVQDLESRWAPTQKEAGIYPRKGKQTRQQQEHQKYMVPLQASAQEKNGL
As to the kind of experiment: Uptake of UTs in HEK293T-OAT1 cells. Particulars: 100 μM, 30 min, 37 °C; for uptake of HSA-bound UT in OAT1-overexpressing cells vs control cells: with HSA; for uptake of free UT in OAT1-overexpressing cells vs control cells: without HSA. The format is cell-based.

The subject of a further series is rMRP4. It counts as in vivo, rats. Particulars: rat, in vivo.
Series [2] can be described thus: Correlation between biomarkers and cefmetazole pharmacokinetics in rats. The format is in vivo. Particulars: PROB 60 and 120 mg/kg 7 days; cefmetazole 100 mg/kg i.v.

Where a name gives a salt, the structure may show the parent alone.

In the case of `O=C(O)CNC(=O)c1ccccc1` [Hippuric acid, hippuric acid], the “renal elimination in rOAT1/3−/− rats” value in the series on rOAT1/3 is given as “substantially inhibited”. In addition, at OAT3, the “uptake of HSA-bound UT in OAT3-overexpressing cells vs control cells” value is listed as “dramatically increased” and the “uptake of free UT in OAT3-overexpressing cells vs control cells” value is “dramatically increased”. In the series with MRP4, the “intracellular accumulation in MRP4-overexpressing cells vs control cells” value (from here on “intracellular accumulation … vs control cells”) is on record as “slightly decreased”. In the series with rOATs (PROB 30, 60, 120 mg/kg oral, 7 days), the “serum levels in rats treated with PROB vs control” value is “no significant change”.

As to `O=C(O)c1cc(=O)[nH]c(=O)[nH]1` [Orotic acid, orotic acid], in the series on serum protein, the “Protein-binding ratio, Normal rats in vivo (%) (n = 6)” value (“Protein-binding ratio … (%) (n = 6)” below) was “less than 24%”. For the same compound, the “Protein-binding ratio, HSA binding in vitro (%) (n = 3)” value (“Protein-binding ratio … (%) (n = 3)” for short) in the series with HSA was “below 50%”.

`Cc1ccc(O[C@@H]2O[C@H](C(=O)O)[C@@H](O)[C@H](O)[C@H]2O)cc1` [p-cresol glucuronide]: in the series with serum protein, the “Protein-binding ratio … (%) (n = 6)” value is listed as under 70%. Besides, at OAT3, the “uptake of HSA-bound UT in OAT3-overexpressing cells vs control cells” value is recorded as “markedly increased” and the “uptake of free UT in OAT3-overexpressing cells vs control cells” value was “markedly increased”.

Take `Cn1cnc2c(ncn2[C@@H]2O[C@H](CO)[C@@H](O)[C@H]2O)c1=O` [1-methyl-inosine]: the “uptake of free UT in OAT3-overexpressing cells vs control cells” value on OAT3 was “significantly higher”.

As for `NCCCC[C@H](NCC(=O)O)C(=O)O` [N-(1-carboxymethyl)-L-lysine], the “Protein-binding ratio … (%) (n = 6)” value in the series on serum protein is listed as under 70%.

As for `N[C@@H](Cc1ccc(O)c(O)c1)C(=O)O` [3-(3,4-dihydroxyphenyl)-L-alanine], in the series on serum protein, the “Protein-binding ratio … (%) (n = 6)” value is reported as under 70%.

Turning to `O=c1[nH]cc([C@@H]2O[C@H](CO)[C@@H](O)[C@H]2O)c(=O)[nH]1` [Pseudouridine, pseudouridine], the “Protein-binding ratio … (%) (n = 6)” value in the series on serum protein was “less than 24%”. Also, the “Protein-binding ratio … (%) (n = 3)” value with HSA is reported as “below 50%”.

Regarding `[2H]c1c([2H])c([2H])c2c(O)c([2H])c(C(=O)O)nc2c1[2H]` [d5-kynurenic acid], the “Renal clearance half-life (t1/2), Control” value in [1] stood at 3.7 ± 0.7 h.

In the case of `O=C(O)Cc1c[nH]c2ccccc12` [Indole-3-acetic acid, indole-3-acetic acid], at OAT1, the “uptake of HSA-bound UT in OAT1-overexpressing cells vs control cells” value is on record as “significantly increased” and the “uptake of free UT in OAT1-overexpressing cells vs control cells” value is on record as “significantly increased”.

Consider `CN1CC(=O)NC1=N` [Creatinine, creatinine], for which, in the series with rMRP4, the “renal clearance rate in rMRP4−/− rats vs WT” value was “not significantly altered”, the “renal uptake ratio in rMRP4−/− rats vs WT” value is reported as “not significantly altered” and the “serum levels in rMRP4−/− rats vs WT” value was “not significantly altered”. Also, the “renal elimination in rOAT1/3−/− rats” value in the series with rOAT1/3 is listed as “unaffected”. For the same compound, in the series on serum protein, the “Protein-binding ratio … (%) (n = 6)” value was “less than 24%”. In addition, the “Protein-binding ratio … (%) (n = 3)” value in the series on HSA is listed as “below 50%”. In addition, the “plasma concentrations in rats treated with PROB” value in series [2] is “did not change significantly”.

Consider `CN(C)c1nc2c(ncn2[C@@H]2O[C@H](CO)[C@@H](O)[C@H]2O)c(=O)[nH]1` [N, N-dimethylguanosine, N,N-dimethylguanosine], for which the “Protein-binding ratio … (%) (n = 6)” value with serum protein is “less than 24%”. Further, in the series with HSA, the “Protein-binding ratio … (%) (n = 3)” value was “below 50%”.

Turning to `Nc1ccccc1C(=O)C[C@@H](N)C(=O)O` [D-kynurenine], at OAT1, the “uptake of HSA-bound UT in OAT1-overexpressing cells vs control cells” value is given as “markedly increased” and the “uptake of free UT in OAT1-overexpressing cells vs control cells” value is recorded as “markedly increased”. Further, the “Protein-binding ratio … (%) (n = 6)” value with serum protein is over 90%.

Take `CC(=O)N[C@@H](CCCN=C(N)N)C(=O)O` [N-acetyl-L-arginine]: the “intracellular accumulation … vs control cells” value in the series on MRP4 is recorded as “significantly decreased”.

Regarding `Cc1ccc(OS(=O)(=O)O)cc1` [p-cresol sulfate], at OAT1, the “uptake of HSA-bound UT in OAT1-overexpressing cells vs control cells” value is “significantly increased” and the “uptake of free UT in OAT1-overexpressing cells vs control cells” value was “significantly increased”. In addition, the “Protein-binding ratio … (%) (n = 6)” value in the series with serum protein is recorded as over 90%. The “uptake of free UT in OAT3-overexpressing cells vs control cells” value at OAT3 is reported as “significantly increased”.

On to `OC[C@H]1O[C@@H](Oc2c[nH]c3ccccc23)[C@H](O)[C@@H](O)[C@@H]1O` [3-indoxyl-β-D-glucopyranoside], for which, in the series on serum protein, the “Protein-binding ratio … (%) (n = 6)” value is given as over 90%. On OAT3, the “uptake of HSA-bound UT in OAT3-overexpressing cells vs control cells” value is listed as “markedly increased” and the “uptake of free UT in OAT3-overexpressing cells vs control cells” value is “markedly increased”.

For the compound d3-CMPF, in series [1], the “Renal clearance half-life (t1/2), Control” value stood at 1.9 ± 0.3 h; the “renal excretion with MK-571 vs control” value is on record as “did not affect”; the “renal excretion with PROB vs control” value was “did not affect”.

Take `CCCN(CCC)S(=O)(=O)c1ccc(C(=O)O)cc1` [PROB, probenecid, reference compound]: the “histological structure of kidney” value in the series on rOATs (rats, H&E staining) is reported as “unchanged”.

On to `O=C(O)[C@H]1O[C@@H](Oc2ccccc2)[C@H](O)[C@@H](O)[C@@H]1O` [Phenyl-β-D-glucuronide, phenyl-β-D-glucuronide], for which the “Protein-binding ratio … (%) (n = 6)” value in the series on serum protein was under 70%. At OAT3, the “uptake of HSA-bound UT in OAT3-overexpressing cells vs control cells” value is recorded as “significantly increased” and the “uptake of free UT in OAT3-overexpressing cells vs control cells” value is on record as “significantly increased”.

For the compound `O=C(O)c1cc(O)c2cccc(O)c2n1` [xanthurenic, xanthurenic acid], on OAT1, the “uptake of free UT in OAT1-overexpressing cells vs control cells” value is “mediated by OAT1 and OAT3”. For the same compound, the “uptake of free UT in OAT3-overexpressing cells vs control cells” value at OAT3 is “mediated by OAT1 and OAT3”. The “intracellular accumulation … vs control cells” value in the series on MRP4 is “efflux by MRP4”. For the same compound, in the series on rOATs (rats / in vivo), the “serum level in vivo (detectability by LC-MS/MS)” value is “below the lowest detection limit”.

As to `CC(=O)Nc1ccn([C@@H]2O[C@H](CO)[C@@H](O)[C@H]2O)c(=O)n1` [N-acetylcytidine], at OAT1, the “uptake of free UT in OAT1-overexpressing cells vs control cells” value was “significantly increased”. Further, the “uptake of free UT in OAT3-overexpressing cells vs control cells” value on OAT3 is “significantly increased”.

As to `CCc1ccc(OS(=O)(=O)[O-])cc1.[K+]` [4-ethylphenyl sulfate], on OAT1, the “uptake of HSA-bound UT in OAT1-overexpressing cells vs control cells” value is on record as “no significant change” and the “uptake of free UT in OAT1-overexpressing cells vs control cells” value is “substantially elevated”. In addition, the “Protein-binding ratio … (%) (n = 6)” value in the series with serum protein was over 90%. Moreover, on OAT3, the “uptake of HSA-bound UT in OAT3-overexpressing cells vs control cells” value is listed as “no significant change” and the “uptake of free UT in OAT3-overexpressing cells vs control cells” value is “substantially elevated”.

As for `[2H]c1c([2H])c([2H])c2c(O)c([2H])c(C(=O)O)nc2c1O` [d4-xanthurenic acid], in series [1], the “renal excretion with MK-571 vs control” value is recorded as “reduce” and the “renal excretion with PROB vs control” value is recorded as “reduce”.

Take `O=S(=O)(O)Oc1c[nH]c2ccccc12` [3-indoxyl sulfate]: at OAT3, the “uptake of HSA-bound UT in OAT3-overexpressing cells vs control cells” value is reported as “no significant change” and the “uptake of free UT in OAT3-overexpressing cells vs control cells” value is “substantially elevated”.

The values above are taken from PMC10657973 (Journal of Pharmaceutical Analysis, 2023).
